Results as given in publication PMC8151276, “An Integrated Approach toward NanoBRET Tracers for Analysis of GPCR Ligand Engagement” (Molecules, 2021).

How the values were obtained:
Format in all cases: binding
CCR2 = molecular target: T1, CCR2 (Homo sapiens, UniProt P41597); experiment: NanoBRET screen HiBiT-CCR2 in HEK293
T1 construct: purchased Promega (in-house HiBiT-GPCR construct library, NanoBRET)
Procedure: (§1) Each tracer candidate was screened across the entire library of HiBiT-GPCR constructs using NanoBRET as the detection modality. As depicted in Figure 4A, the specificity of interactions was evaluated through decrease in BRET due to competitive displacement of a bound tracer by excess parental compound. Each tracer was analyzed for binding to each HiBiT-GPCR fusion in the absence and in the presence of competing parental compound. Briefly, HEK293 cells were transfected with HiBiT-GPCR constructs diluted into promoterless DNA to reduce expression and maximize translocation to the cell surface. Each tracer candidate was then screened at concentrations of 1 μM and 0.1 μM across cells expressing these fusions. Cells were treated for 1.5 h with tracer either alone or in the presence of 20 μM competing parental compound (i.e., control). BRET was measured upon addition of purified LgBiT and subsequent complementation with HiBiT genetically fused to a GPCR. The specificity of interactions was assessed through a decrease in BRET signal due to competitive displacement of the bound tracer. To further gauge the robustness of these interactions, the fold response over the control (i.e., BRETtracer/BRETcontrol) was calculated. We chose a 1.5-fold response, which translates to ≥7-fold signal over noise as the minimal threshold required to score an interaction as positive. […]. Below we highlight the screening results obtained for our exemplary fluorescent tracers based on Clozapine, Amitriptyline and AZD1283.
(§2) HiBiT-GPCR DNA constructs were diluted in 10 mM Tris pH 8 to a final concentration of 0.01 μg/μL, arrayed in 96-well plates and stored at −20 °C. For transfection, HEK293 cells were suspended in Opti-MEM (without phenol red) supplemented with 2% fetal bovine serum (Seradigm) and 100 units/mL penicillin–streptomycin (Gibco) at a final concentration of 220,000 cells/mL and dispensed into white 96-well plates at 90 μL/well. Subsequent transfections and screens were carried using an Agilent Bravo Automated Liquid Handling Platform. First, the 96-well HiBiT DNA arrays were diluted 25-fold in Opti-MEM (without serum or phenol red) to a final concentration of 0.0004 μg/μL and 20 μL of the diluted DNAs were transferred into new 96-well plates. Next, promoterless carrier DNA (1 μg/μL) was diluted 25-fold (0.04 μg/μL) and then dispensed into the diluted arrays at 20 μL/well. Following brief mixing, Viafect transfection reagent (Promega) diluted 16-fold into Opti-MEM was dispensed into the plates at 40 μL/well. After mixing by pipetting, plates were incubated for 10 min on the pipetting station deck. The DNA-transfection reagent complexes were then added to plates containing cells. To facilitate the screen, 10 μL of DNA-transfection reagent complexes were added in duplicates to the top 4 and bottom 4 rows, resulting in two identical 48-well arrays per plate. Plates with transfected cells were incubated for 18–20 h at 37 °C/5% CO2. A screen of each tracer across the entire library using two different concentrations requires duplicate plates of transfected cells. Depending on the number of tracers being screened, transfections can be scaled up using the same ratios. The next day, for each tracer, four 20× screening solutions in tracer dilution buffer (Promega) were prepared: two duplicates at final concentration of 20 μM and two duplicates at a final concentration of 2 μM. A competing unmodified compound was added to one of each duplicate at a final concentration of 400 μM. The four resulting solutions were diluted 4-fold in Opti-MEM without serum or phenol red to generate 5× solutions (5 µM and 0.5 µM tracer +/− 100 μM competing compound). To screen the library, a BioTek MultiFlo FX liquid dispenser was used to dispense 22.5 µL of tracer solution to the top 4 rows and 22.5 µL tracer + competing compound solution to the 4 bottom rows. Plates were briefly mixed on an orbital shaker and incubated for 1.5 h at room temperature. […]

CXCR6 = molecular target: T2, CXCR6 (Homo sapiens, UniProt O00574); experiment: NanoBRET screen HiBiT-CXCR6 in HEK293
T2 construct: purchased Promega (in-house HiBiT-GPCR construct library, NanoBRET)
Procedure: as §1, §2

LGR6 = molecular target: T3, LGR6 (Homo sapiens, UniProt Q9HBX8); experiment: NanoBRET screen HiBiT-LGR6 in HEK293
T3 construct: purchased Promega (in-house HiBiT-GPCR construct library, NanoBRET)
T3 sequence (Q9HBX8 25-967): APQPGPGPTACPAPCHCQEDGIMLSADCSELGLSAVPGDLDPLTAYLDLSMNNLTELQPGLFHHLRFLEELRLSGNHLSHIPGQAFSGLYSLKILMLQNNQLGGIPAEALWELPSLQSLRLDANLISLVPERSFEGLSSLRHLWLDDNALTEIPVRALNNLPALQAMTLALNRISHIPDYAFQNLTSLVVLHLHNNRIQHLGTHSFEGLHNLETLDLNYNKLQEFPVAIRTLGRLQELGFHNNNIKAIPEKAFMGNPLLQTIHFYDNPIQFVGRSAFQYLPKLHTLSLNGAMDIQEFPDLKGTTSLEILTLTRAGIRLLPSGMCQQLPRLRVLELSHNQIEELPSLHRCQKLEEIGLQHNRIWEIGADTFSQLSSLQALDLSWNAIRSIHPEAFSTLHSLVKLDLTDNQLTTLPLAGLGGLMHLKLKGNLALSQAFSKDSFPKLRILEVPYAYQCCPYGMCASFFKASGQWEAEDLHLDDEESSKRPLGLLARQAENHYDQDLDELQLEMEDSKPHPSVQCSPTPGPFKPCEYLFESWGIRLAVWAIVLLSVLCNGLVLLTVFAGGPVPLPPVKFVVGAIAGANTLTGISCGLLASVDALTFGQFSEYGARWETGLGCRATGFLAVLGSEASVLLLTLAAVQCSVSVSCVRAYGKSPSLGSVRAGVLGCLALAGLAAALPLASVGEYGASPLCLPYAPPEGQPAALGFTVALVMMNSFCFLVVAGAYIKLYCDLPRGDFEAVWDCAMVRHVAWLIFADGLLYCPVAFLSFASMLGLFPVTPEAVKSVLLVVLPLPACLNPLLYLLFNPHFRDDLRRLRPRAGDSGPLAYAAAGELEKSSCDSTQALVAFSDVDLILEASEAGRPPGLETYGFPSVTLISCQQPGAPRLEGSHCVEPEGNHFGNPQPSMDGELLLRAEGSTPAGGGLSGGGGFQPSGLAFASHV
Procedure: as §1, §2

PDGFRB = molecular target: T4, PDGFRB (Homo sapiens, UniProt P09619); experiment: NanoBRET screen HiBiT-PDGFRB in HEK293
T4 construct: purchased Promega (in-house HiBiT-GPCR construct library, NanoBRET)
Procedure: as §1, §2

MC4R = molecular target: T5, MC4R (Homo sapiens, UniProt P32245); experiment: NanoBRET screen HiBiT-MC4R in HEK293
T5 construct: purchased Promega (in-house HiBiT-GPCR construct library, NanoBRET)
Procedure: as §1, §2

MLNR = molecular target: T6, MLNR (Homo sapiens, UniProt O43193); experiment: NanoBRET screen HiBiT-MLNR in HEK293
T6 construct: purchased Promega (in-house HiBiT-GPCR construct library, NanoBRET)
Procedure: as §1, §2

T6 sequence (O43193 whole entry): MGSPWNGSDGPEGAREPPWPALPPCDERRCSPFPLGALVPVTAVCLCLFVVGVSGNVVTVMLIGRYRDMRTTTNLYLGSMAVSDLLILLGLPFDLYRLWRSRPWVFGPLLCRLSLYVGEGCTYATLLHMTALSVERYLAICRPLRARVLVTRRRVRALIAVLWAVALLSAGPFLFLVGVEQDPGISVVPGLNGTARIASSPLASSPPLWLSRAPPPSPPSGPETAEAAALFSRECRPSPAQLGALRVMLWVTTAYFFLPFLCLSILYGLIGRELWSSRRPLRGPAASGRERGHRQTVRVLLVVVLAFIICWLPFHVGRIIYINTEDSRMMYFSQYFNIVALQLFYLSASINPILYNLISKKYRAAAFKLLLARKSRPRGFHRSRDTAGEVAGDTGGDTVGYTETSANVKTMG
T5 sequence (P32245 whole entry): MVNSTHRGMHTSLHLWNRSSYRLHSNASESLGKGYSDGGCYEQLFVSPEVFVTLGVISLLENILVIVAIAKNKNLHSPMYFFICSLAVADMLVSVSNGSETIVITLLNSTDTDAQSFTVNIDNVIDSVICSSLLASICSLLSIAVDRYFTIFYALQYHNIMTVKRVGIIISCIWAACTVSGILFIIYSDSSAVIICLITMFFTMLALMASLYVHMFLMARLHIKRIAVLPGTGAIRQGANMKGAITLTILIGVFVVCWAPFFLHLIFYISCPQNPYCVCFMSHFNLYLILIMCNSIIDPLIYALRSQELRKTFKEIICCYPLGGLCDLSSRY
T2 sequence (O00574 whole entry): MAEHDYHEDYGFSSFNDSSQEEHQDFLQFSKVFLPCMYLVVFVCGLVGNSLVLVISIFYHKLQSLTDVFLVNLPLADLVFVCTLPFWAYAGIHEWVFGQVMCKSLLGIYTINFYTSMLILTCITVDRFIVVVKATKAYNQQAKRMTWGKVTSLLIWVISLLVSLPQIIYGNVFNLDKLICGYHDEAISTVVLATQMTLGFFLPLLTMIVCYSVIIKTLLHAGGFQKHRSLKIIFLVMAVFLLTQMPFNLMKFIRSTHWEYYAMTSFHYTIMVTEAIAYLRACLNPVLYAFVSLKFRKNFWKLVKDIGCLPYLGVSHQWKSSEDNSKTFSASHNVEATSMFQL
T4 sequence (P09619 33-1106): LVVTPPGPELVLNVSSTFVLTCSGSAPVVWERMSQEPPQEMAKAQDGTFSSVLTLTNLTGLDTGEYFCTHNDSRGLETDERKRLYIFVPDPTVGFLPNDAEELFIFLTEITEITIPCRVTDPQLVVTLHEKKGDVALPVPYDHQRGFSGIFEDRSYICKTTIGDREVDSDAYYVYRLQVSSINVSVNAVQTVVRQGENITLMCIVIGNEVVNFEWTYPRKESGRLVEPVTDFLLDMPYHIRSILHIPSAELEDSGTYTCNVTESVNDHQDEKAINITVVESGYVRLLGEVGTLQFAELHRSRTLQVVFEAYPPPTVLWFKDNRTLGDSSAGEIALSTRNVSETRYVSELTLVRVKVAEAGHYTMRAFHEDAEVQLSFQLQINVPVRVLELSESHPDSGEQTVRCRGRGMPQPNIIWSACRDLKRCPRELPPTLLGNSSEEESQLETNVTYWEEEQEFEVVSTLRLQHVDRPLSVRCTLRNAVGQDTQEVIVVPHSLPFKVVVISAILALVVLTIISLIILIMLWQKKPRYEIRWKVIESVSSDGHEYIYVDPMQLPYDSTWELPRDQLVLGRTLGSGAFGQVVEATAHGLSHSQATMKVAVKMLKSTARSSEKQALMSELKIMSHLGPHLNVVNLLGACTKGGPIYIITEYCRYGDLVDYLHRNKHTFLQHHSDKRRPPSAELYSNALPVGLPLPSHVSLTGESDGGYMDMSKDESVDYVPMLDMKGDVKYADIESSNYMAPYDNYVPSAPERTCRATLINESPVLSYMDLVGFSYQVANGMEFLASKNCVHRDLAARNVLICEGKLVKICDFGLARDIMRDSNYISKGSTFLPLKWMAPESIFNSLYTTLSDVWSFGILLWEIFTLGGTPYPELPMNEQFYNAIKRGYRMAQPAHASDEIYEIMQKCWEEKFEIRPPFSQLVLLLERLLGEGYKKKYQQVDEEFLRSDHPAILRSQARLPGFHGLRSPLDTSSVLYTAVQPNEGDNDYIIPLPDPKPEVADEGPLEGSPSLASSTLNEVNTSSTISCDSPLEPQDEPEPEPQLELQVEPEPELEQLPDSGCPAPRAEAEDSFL
T1 sequence (P41597 whole entry): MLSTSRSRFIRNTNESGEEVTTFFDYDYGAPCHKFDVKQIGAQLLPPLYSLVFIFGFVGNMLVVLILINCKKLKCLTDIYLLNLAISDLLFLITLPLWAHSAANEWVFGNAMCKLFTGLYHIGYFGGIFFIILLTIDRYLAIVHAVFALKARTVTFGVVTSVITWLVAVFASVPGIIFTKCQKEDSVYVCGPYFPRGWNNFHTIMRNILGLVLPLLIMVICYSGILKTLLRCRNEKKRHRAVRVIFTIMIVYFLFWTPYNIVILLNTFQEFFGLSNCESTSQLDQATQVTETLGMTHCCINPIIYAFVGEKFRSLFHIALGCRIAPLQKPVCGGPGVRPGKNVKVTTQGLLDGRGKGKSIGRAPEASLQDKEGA

In the case of `CN(CCC=C1c2ccccc2CCc2ccccc21)C(=O)CCOCCOCCOCCOCCNC(=O)CCc1ccc2n1[B-](F)(F)[N+]1=C(c3ccc[nH]3)C=CC1=C2` [Amitriptyline-e-2-NB590], the “NanoBRET Fold Response” value (CCR2; tracer at 1μM) is reported as 0.90, the “NanoBRET Fold Response” value (CXCR6; tracer at 1μM) is reported as 0.98 and the “NanoBRET Fold Response” value (LGR6; tracer at 1μM) is reported as 1.16. The “NanoBRET Fold Response” value (PDGFRB; tracer at 1μM) was 1.04.

For `COc1ccc2c(n1)c(CCNC(C)=O)cn2CCNC(=O)CCc1ccc2n1[B-](F)(F)[N+]1=C(c3ccc[nH]3)C=CC1=C2` [Azamelatonin-1-NB590], the “NanoBRET Fold Response” value (CCR2; 0.1μM tracer) was 1.06, the “NanoBRET Fold Response” value (CCR2; 1μM tracer) was 0.97 and the “NanoBRET Fold Response” value (CXCR6; 0.1μM tracer) was 1.07. For the same molecule, the “NanoBRET Fold Response” value (CXCR6; 1μM tracer) was 0.89, the “NanoBRET Fold Response” value (MC4R; 0.1μM tracer) was 0.87 and the “NanoBRET Fold Response” value (MC4R; 1μM tracer) was 1.03. For the same molecule, the “NanoBRET Fold Response” value (LGR6; 0.1μM tracer) was 1.03, the “NanoBRET Fold Response” value (LGR6; 1μM tracer) was 0.55 and the “NanoBRET Fold Response” value (PDGFRB; 0.1μM tracer) was 0.56. The “NanoBRET Fold Response” value (PDGFRB; 1μM tracer) was 0.56, the “NanoBRET Fold Response” value (MLNR; 0.1μM tracer) was 1.00 and the “NanoBRET Fold Response” value (MLNR; 1μM tracer) was 0.92.

In the case of `COc1ccc2[nH]c(-c3ccc(CNC(=O)CCOCCOCCOCCOCCNC(=O)CCc4ccc5n4[B-](F)(F)[N+]4=C(c6ccc[nH]6)C=CC4=C5)cc3)c(CCNC(C)=O)c2n1` [AzomelatoninICO9-2-NB590], the “NanoBRET Fold Response” value (CCR2; 0.1μM tracer) is reported as 1.23, the “NanoBRET Fold Response” value (CCR2; 1μM tracer) is reported as 1.22 and the “NanoBRET Fold Response” value (CXCR6; 0.1μM tracer) is reported as 0.98. The “NanoBRET Fold Response” value (CXCR6; 1μM tracer) was 1.16, the “NanoBRET Fold Response” value (MC4R; 0.1μM tracer) was 0.92 and the “NanoBRET Fold Response” value (MC4R; 1μM tracer) was 0.98. For the same molecule, the “NanoBRET Fold Response” value (LGR6; 0.1μM tracer) was 0.62, the “NanoBRET Fold Response” value (LGR6; 1μM tracer) was 0.95 and the “NanoBRET Fold Response” value (PDGFRB; 0.1μM tracer) was 0.80. For the same molecule, the “NanoBRET Fold Response” value (PDGFRB; 1μM tracer) was 1.04, the “NanoBRET Fold Response” value (MLNR; 0.1μM tracer) was 0.60 and the “NanoBRET Fold Response” value (MLNR; 1μM tracer) was 0.87.

With `O=C(CCOCCOCCOCCOCCNC(=O)CCc1ccc2n1[B-](F)(F)[N+]1=C(c3ccc[nH]3)C=CC1=C2)NCCCN1CCN(C2=Nc3cc(Cl)ccc3Nc3ccccc32)CC1` [Clozapine-a-2-NB590] the “NanoBRET Fold Response” value (CCR2; CCR2, 0.1μM tracer) was 1.06, the “NanoBRET Fold Response” value (CCR2; CCR2, 1μM tracer) was 0.73 and the “NanoBRET Fold Response” value (CXCR6; CXCR6, 0.1μM tracer) was 0.98. For the same molecule, the “NanoBRET Fold Response” value (CXCR6; CXCR6, 1μM tracer) was 1.08, the “NanoBRET Fold Response” value (MC4R; MC4R, 0.1μM tracer) was 1.02 and the “NanoBRET Fold Response” value (MC4R; MC4R, 1μM tracer) was 1.01. For the same molecule, the “NanoBRET Fold Response” value (LGR6; LGR6, 0.1μM tracer) was 1.03, the “NanoBRET Fold Response” value (LGR6; LGR6, 1μM tracer) was 0.66 and the “NanoBRET Fold Response” value (PDGFRB; PDGFRB, 0.1μM tracer) was 1.09. For the same molecule, the “NanoBRET Fold Response” value (PDGFRB; PDGFRB, 1μM tracer) was 0.88, the “NanoBRET Fold Response” value (MLNR; MLNR, 0.1μM tracer) was 0.94 and the “NanoBRET Fold Response” value (MLNR; MLNR, 1μM tracer) was 1.08.

For `COc1ccccc1N1CCN(CCCCN2C(=O)c3ccc(CNC(=O)CCOCCOCCOCCOCCNC(=O)CCc4ccc5n4[B-](F)(F)[N+]4=C(c6ccc[nH]6)C=CC4=C5)cc3C2=O)CC1` [NAN-190-2-NB590], the “NanoBRET Fold Response” value (CCR2; CCR2, tracer 0.1μM) was 1.04, the “NanoBRET Fold Response” value (CCR2; CCR2, tracer 1μM) was 1.00 and the “NanoBRET Fold Response” value (CXCR6; CXCR6, tracer 0.1μM) was 0.94. For the same molecule, the “NanoBRET Fold Response” value (CXCR6; CXCR6, tracer 1μM) was 1.02, the “NanoBRET Fold Response” value (MC4R; MC4R, tracer 0.1μM) was 0.97 and the “NanoBRET Fold Response” value (MC4R; MC4R, tracer 1μM) was 1.01. For the same molecule, the “NanoBRET Fold Response” value (PDGFRB; PDGFRB, tracer 0.1μM) was 0.99, the “NanoBRET Fold Response” value (PDGFRB; PDGFRB, tracer 1μM) was 1.00 and the “NanoBRET Fold Response” value (MLNR; MLNR, tracer 0.1μM) was 0.67.
